Where “and” joins values, the source holds several entries; their conditions need not be identical. Equal values may be shown once. Toxic doses and inconclusive results are not listed.
Test system: BDF1 mice, P388 leukemia ip, median survival T/C
Assay: NCI In Vivo Anticancer Drug Screen. Data for tumor model P388 Leukemia (intraperitoneal) in B6D2F1 (BDF1) mice
Details: endpoint: median survival time, higher = longer survival
Method in brief: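 Survival ratio, drug arm over vehicle arm, in mice with a transplanted tumour.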

[1] = dose: 1.0 mg/kg/injection, schedule: Q01DX009 (ip), vehicle: saline
[2] = dose: 25.0 mg/kg/injection, schedule: Q01DX009 (ip), vehicle: saline with Tween-80
[3] = dose: 100.0 mg/kg/injection, schedule: Q01DX009 (ip), vehicle: saline
[4] = dose: 150.0 mg/kg/injection, schedule: Q01DX009 (ip), vehicle: saline
[5] = dose: 25.0 mg/kg/injection, schedule: Q01DX009 (ip), vehicle: saline
[6] = dose: 50.0 mg/kg/injection, schedule: Q01DX009 (ip), vehicle: saline
[7] = dose: 50.0 mg/kg/injection, schedule: Q01DX009 (ip), vehicle: saline with Tween-80
[8] = dose: 100.0 mg/kg/injection, schedule: Q01DX009 (ip), vehicle: saline with Tween-80
[9] = dose: 200.0 mg/kg/injection, schedule: Q01DX009 (ip), vehicle: saline with Tween-80
[10] = dose: 50.0 mg/kg/injection, schedule: Q04DX003 (ip), vehicle: saline with Tween-80
[11] = dose: 100.0 mg/kg/injection, schedule: Q04DX003 (ip), vehicle: saline with Tween-80
[12] = dose: 50.0 mg/kg/injection, schedule: Q04DX003 (ip), vehicle: saline
[13] = dose: 100.0 mg/kg/injection, schedule: Q04DX003 (ip), vehicle: saline
[14] = dose: 200.0 mg/kg/injection, schedule: Q04DX003 (ip), vehicle: saline with Tween-80
[15] = dose: 400.0 mg/kg/injection, schedule: Q04DX003 (ip), vehicle: saline with Tween-80

Compound: CO[C@H]1Nc2c(ccc(C)c2O)C(=O)N2C=C(/C=C/C(N)=O)C[C@@H]12
- T/C (dose: 0.02 mg/kg/injection, schedule: Q01DX010 (ip), vehicle: carboxymethylcellulose (CMC)): 230 % of control
- T/C (dose: 0.05 mg/kg/injection, schedule: Q01DX010 (ip), vehicle: carboxymethylcellulose (CMC)): 230 % of control
- T/C (dose: 0.08 mg/kg/injection, schedule: Q01DX009 (ip), vehicle: Klucel (hydroxypropylcellulose) (HPC)): 242 % of control
- T/C (dose: 0.08 mg/kg/injection, schedule: Q01DX009 (ip), vehicle: saline): 150 % of control
- T/C (dose: 0.1 mg/kg/injection, schedule: Q01DX010 (ip), vehicle: carboxymethylcellulose (CMC)): 210 % of control
- T/C (dose: 0.12 mg/kg/injection, schedule: Q01DX009 (ip), vehicle: saline with Tween-80): 168 % of control
- T/C (dose: 0.18 mg/kg/injection, schedule: Q01DX009 (ip), vehicle: Klucel (hydroxypropylcellulose) (HPC)): 238 % of control
- T/C (dose: 0.2 mg/kg/injection, schedule: Q01DX010 (ip), vehicle: carboxymethylcellulose (CMC)): 185 % of control
- T/C (dose: 0.25 mg/kg/injection, schedule: Q01DX010 (ip), vehicle: saline): 90 % of control
- T/C (dose: 151.0 micrograms/kg/injection, schedule: Q04DX003 (ip), vehicle: saline + alcohol): 186 % of control
- T/C (dose: 216.0 micrograms/kg/injection, schedule: Q04DX003 (ip), vehicle: saline + alcohol): 177 % of control and 189 % of control
- T/C (dose: 252.0 micrograms/kg/injection, schedule: Q04DX003 (ip), vehicle: saline + alcohol): 208 % of control
- T/C (dose: 360.0 micrograms/kg/injection, schedule: Q04DX003 (ip), vehicle: saline + alcohol): 183 % of control and 196 % of control
- T/C (dose: 420.0 micrograms/kg/injection, schedule: Q04DX003 (ip), vehicle: saline + alcohol): 215 % of control
- T/C (dose: 600.0 micrograms/kg/injection, schedule: Q04DX003 (ip), vehicle: saline + alcohol): 94 % of control and 112 % of control

Compound: CC(CCCN(CCCl)CCCl)Nc1ccnc2cc(Cl)ccc12 (stereo not drawn)
- T/C (dose: 0.5 mg/kg/injection, schedule: Q04DX003 (ip), vehicle: saline): 100 % of control
- T/C (dose: 0.66 mg/kg/injection, schedule: Q01DX009 (ip), vehicle: saline): 154 % of control
- T/C [1]: 154 % of control
- T/C (dose: 1.0 mg/kg/injection, schedule: Q04DX003 (ip), vehicle: saline): 100 % of control
- T/C (dose: 2.0 mg/kg/injection, schedule: Q04DX003 (ip), vehicle: saline): 111 % of control

Compound: NC1CC2C=CCC(C1)C2 (stereo not drawn)
- T/C (dose: 37.5 mg/kg/injection, schedule: Q01DX001 (ip), vehicle: saline): 95 % of control
- T/C (dose: 75.0 mg/kg/injection, schedule: Q01DX001 (ip), vehicle: saline): 100 % of control
- T/C (dose: 150.0 mg/kg/injection, schedule: Q01DX001 (ip), vehicle: saline): 100 % of control

Compound: CCOC1OCN(C)CC1(C)C (stereo not drawn)
- T/C (dose: 12.5 mg/kg/injection, schedule: Q01DX009 (ip), vehicle: saline with Tween-80): 115 % of control
- T/C [2]: 120 % of control
- T/C (dose: 66.0 mg/kg/injection, schedule: Q01DX009 (ip), vehicle: saline): 115 % of control
- T/C [3]: 119 % of control
- T/C [4]: 154 % of control

Compound: COc1ccc(-c2cc(=O)c3c(O)c(OC)c(O)cc3o2)cc1
- T/C (dose: 10.0 mg/kg/injection, schedule: Q01DX010 (ip), vehicle: carboxymethylcellulose (CMC)): 95 % of control
- T/C (dose: 20.0 mg/kg/injection, schedule: Q01DX010 (ip), vehicle: carboxymethylcellulose (CMC)): 90 % of control
- T/C (dose: 80.0 mg/kg/injection, schedule: Q01DX010 (ip), vehicle: carboxymethylcellulose (CMC)): 95 % of control

Compound: COc1ccc(NC(=O)Nc2c(Oc3ccc(Cl)cc3)ccc(Cl)c2S(=O)(=O)O)cc1Cl
- T/C [5]: 109 % of control
- T/C [6]: 86 % of control
- T/C [3]: 104 % of control

Compound: CC(C)c1cccc(C(C)C)c1NC(=O)N1CCOCC1
- T/C [7]: 100 % of control
- T/C [8]: 93 % of control
- T/C [9]: 90 % of control

Compound: CCCCCCCCCCCCOB(OCCCCCCCCCCCC)OCCCCCCCCCCCC
- T/C [2]: 100 % of control
- T/C (dose: 25.0 mg/kg/injection, schedule: Q04DX003 (ip), vehicle: saline with Tween-80): 91 % of control
- T/C [7]: 108 % of control
- T/C [10]: 95 % of control
- T/C [8]: 100 % of control
- T/C [11]: 116 % of control

Compound: COc1ccc(NCNc2ccc(OC)cc2)cc1
- T/C (dose: 25.0 mg/kg/injection, schedule: Q04DX003 (ip), vehicle: Klucel (hydroxypropylcellulose) (HPC)): 110 % of control
- T/C (dose: 50.0 mg/kg/injection, schedule: Q04DX003 (ip), vehicle: Klucel (hydroxypropylcellulose) (HPC)): 105 % of control
- T/C (dose: 100.0 mg/kg/injection, schedule: Q04DX003 (ip), vehicle: Klucel (hydroxypropylcellulose) (HPC)): 110 % of control

Compound: O=C(N=Nc1c(O)[nH]c2ccccc12)C(=O)Nc1cccc(C(F)(F)F)c1
- T/C [7]: 87 % of control

Compound: CC(=O)CC(=O)Nc1nc2ccccc2s1
- T/C [6]: 94 % of control
- T/C (dose: 200.0 mg/kg/injection, schedule: Q01DX009 (ip), vehicle: saline): 105 % of control

Compound: COc1ccc(CC[N+]2=Cc3cc(OC)c(OC)cc3CC2)cc1OC
- T/C (dose: 6.25 mg/kg/injection, schedule: Q01DX009 (ip), vehicle: saline): 104 % of control and 111 % of control
- T/C (dose: 12.5 mg/kg/injection, schedule: Q01DX009 (ip), vehicle: saline): 100 % of control
- T/C (dose: 12.5 mg/kg/injection, schedule: Q04DX003 (ip), vehicle: saline): 109 % of control
- T/C [5]: 100 % of control and 104 % of control
- T/C (dose: 25.0 mg/kg/injection, schedule: Q04DX003 (ip), vehicle: saline): 117 % of control
- T/C [6]: 95 % of control and 103 % of control and 107 % of control
- T/C [12]: 101 % of control and 103 % of control
- T/C [3]: 98 % of control
- T/C [4]: 95 % of control

Compound: CCCCCCCCCCCCN1CCCC(O)C1 (stereo not drawn)
- T/C [2]: 104 % of control
- T/C [7]: 100 % of control
- T/C [10]: 120 % of control
- T/C [11]: 90 % of control

Compound: CS(=O)(=O)ON1C(=O)c2ccccc2C1=O
- T/C [13]: 120 % of control

Compound: ClC1OC(Cl)C(Cl)OC1Cl (stereo not drawn)
- T/C (dose: 6.25 mg/kg/injection, schedule: Q01DX009 (ip), vehicle: Klucel (hydroxypropylcellulose) (HPC)): 105 % of control
- T/C (dose: 12.5 mg/kg/injection, schedule: Q01DX009 (ip), vehicle: Klucel (hydroxypropylcellulose) (HPC)): 110 % of control

Compound: N#CC(CC(=O)OCc1ccccc1)NC(=O)OCc1ccccc1 (stereo not drawn)
- T/C [11]: 95 % of control
- T/C [14]: 90 % of control
- T/C [15]: 100 % of control

Compound: FCc1nc2nc(Cl)c(Cl)nc2[nH]1
- T/C [1]: 96 % of control
- T/C (dose: 2.0 mg/kg/injection, schedule: Q01DX009 (ip), vehicle: saline): 99 % of control and 100 % of control
- T/C (dose: 4.0 mg/kg/injection, schedule: Q01DX009 (ip), vehicle: saline): 90 % of control and 105 % of control
- T/C (dose: 8.0 mg/kg/injection, schedule: Q01DX009 (ip), vehicle: saline): 99 % of control
- T/C (dose: 16.0 mg/kg/injection, schedule: Q01DX009 (ip), vehicle: saline): 100 % of control
- T/C [12]: 104 % of control
- T/C [13]: 101 % of control

Compound: O=C1CC(c2ccc(Cl)cc2)NC(c2ccc(Cl)cc2)C1 (stereo not drawn)
- T/C [8]: 101 % of control
- T/C [11]: 107 % of control
- T/C (dose: 150.0 mg/kg/injection, schedule: Q01DX009 (ip), vehicle: saline with Tween-80): 111 % of control
- T/C [9]: 116 % of control
- T/C [14]: 100 % of control
- T/C [15]: 107 % of control

Compound: C=CCN1/C(=C/C=C\c2sc3ccccc3[n+]2CC=C)Sc2ccccc21
- T/C (dose: 0.12 mg/kg/injection, schedule: Q01DX009 (ip), vehicle: saline): 100 % of control
- T/C (dose: 0.25 mg/kg/injection, schedule: Q04DX003 (ip), vehicle: Klucel (hydroxypropylcellulose) (HPC)): 175 % of control
- T/C (dose: 0.5 mg/kg/injection, schedule: Q04DX003 (ip), vehicle: Klucel (hydroxypropylcellulose) (HPC)): 115 % of control
- T/C [1]: 154 % of control
- T/C (dose: 1.0 mg/kg/injection, schedule: Q01DX010 (ip), vehicle: saline): 123 % of control
- T/C (dose: 1.0 mg/kg/injection, schedule: Q04DX003 (ip), vehicle: Klucel (hydroxypropylcellulose) (HPC)): 110 % of control
- T/C (dose: 63.0 micrograms/kg/injection, schedule: Q01DX010 (ip), vehicle: saline): 90 % of control
- T/C (dose: 125.0 micrograms/kg/injection, schedule: Q01DX010 (ip), vehicle: saline): 90 % of control
- T/C (dose: 250.0 micrograms/kg/injection, schedule: Q01DX010 (ip), vehicle: saline): 90 % of control

Compound: CC1(C)N=C(N)Nc2nnc(-c3cccc(Cl)c3)n21
- T/C (dose: 100.0 mg/kg/injection, schedule: Q01DX001 (ip), vehicle: saline sonified): 105 % of control
- T/C (dose: 200.0 mg/kg/injection, schedule: Q01DX001 (ip), vehicle: saline sonified): 100 % of control
- T/C (dose: 400.0 mg/kg/injection, schedule: Q01DX001 (ip), vehicle: saline sonified): 100 % of control

Source: PubChem BioAssay AID328 (DTP/NCI, 2004)
